How the values were obtained:
[1] = system: primary neuronal cultures from rat cerebral cortex; experiment: Neuroprotection (MTT cell viability) in primary neuronal cultures exposed to oxygen-glucose deprivation (OGD); type: cell-based; conditions: 24 h recovery after 4 h OGD; for neuronal viability compared with R24 h (in words): concentrations as stated or in FIG. 4
Procedure: Primary neuronal cultures. Primary neuronal cultures from rat cerebral cortex were prepared as previously described.^54 All procedures associated with animal experiments were approved by the Ethics Committee of the Hospital Ramón y Cajal, Madrid (Spain). Cell suspensions from cerebral cortex were prepared from 16- to 17-day-old Sprague-Dawley rat embryos. Living cells in cell suspension were counted by trypan blue exclusion method. Cells were seeded on plastic multidishes precoated with 0.05 mg/mL poly-D-lysine at a density of 2.5×10^5 cells/cm^2 and were kept at 37° C. in a 6.5% CO2 atmosphere in high glucose Dulbecco's medium supplemented with 15% heat-inactivated (56° C. for 30 min) foetal calf serum. After 24 h, cultured cells were […] to induce experimental ischemia.^23 Cultured cells were washed and placed in glucose-free Dulbecco's medium (bubbled with 95% N2/5% CO2 for 30 min), and maintained in a humidified hypoxia chamber equipped with an oxygen and carbon dioxide control unit (Biospherix) at 6.5% CO2 and <0.1% O2 in N2 at 37° C. Cells were exposed to OGD for a period of 4 h (OGD 4 h). At the end of the OGD period, culture medium was replaced with oxygenated serum-free medium, and cells were placed and maintained in the normoxic incubator for 24 h to recovery (R24 h). In the neuroprotection experiments, the compounds were added at the onset of recovery period. Control cultures in Dulbecco's medium containing glucose were kept in the normoxic incubator for the same period of time as the OGD, and then medium (Dulbecco's/Ham's F12, 1:1 [vol/vol], 5 mg/mL glucose, 2 mM L-glutamine, and 1 mM sodium pyruvate, and supplemented with 100 μg/mL transferrin, 100 μM putrescine, 20 nM progesterone, 30 nM sodium selenite and 5 μg/mL insulin). Here, 6-7 day old cultured neurons were used in the experiments, and contained 90% β-III-tubulin-positive mature neurons, as described previously.^55
Exposure of cell cultures to oxygen-glucose deprivation and treatments. Primary neuronal cultures were exposed to […]. Control experiments included the same amounts of vehicle (final concentration<0.5% ethanol). Nitrone 2 was used as reference compound for neuroprotection. The experimental procedures were blindly performed, assigning a random order to each assayed nitrone. Nitrones were analyzed independently four-eight times with different batch of cultures and each experiment was run in quadruplicate.
Cell viability assay. Cell viability was evaluated by quantification of living, metabolically active cells, as determined by a colorimetric assay using the photometric reduction of 3-(4,5-dimethylthiazol-2-yl)-2,5-diphenyl tetrazolium bromide (MTT) (Roche) to a blue formazan product. The assay of living, metabolically active cells was performed by incubating with 0.2 mg/mL MTT in the culture medium for 1.5 h in an incubator at 37° C. in a 6.5% CO2 atm. After the incubation period, cells were lysed with an equal volume of 10 mM HCl and 10% SDS overnight. Values were quantified by absorbance (test 595 nm, reference 690 nm). Decreased MTT activity denotes impairment of mitochondrial function and is considered to be an index of cell damage. Primary neuronal cultures were collected at times indicated for MTT determination.
Neuroprotection of compounds was evaluated by a cell viability assay. The neuroprotective effect of the compounds 5-32 was evaluated on primary neuronal cultures from cerebral cortex subjected to oxygen-glucose deprivation (OGD) to induce experimental ischemia. Afterwards, cultured neurons were placed and kept in normoxic and normoglycemic conditions to recovery. […]

[2] = Hydroxyl radical scavenging (competition with DMSO); type: biochemical; conditions: tested at 100 μM
Procedure: Hydroxyl Radicals Scavenging Activity.^32 The hydroxyl radicals were produced by the Fe^3+/ascorbic acid system. EDTA (0.1 mM), Fe^3+ (167 μM), DMSO (33 mM) in phosphate buffer (50 mM, pH 7.4), the tested compounds (0.1 mM) and ascorbic acid (10 mM) were mixed in test tubes. The solutions were incubated at 37° C. for 30 min. The reaction was stopped by trichloroacetic acid (17% w/v) (Table 1) and the % scavenging activity of the tested compounds for hydroxyl radicals was given.
3.2. Competition of QNs with DMSO for hydroxyl radicals. Among the ROS, the hydroxyl (·OH) free radical is possibly the most toxic, as it easily reacts with biological important molecules such as DNA, lipids or carbohydrates. Polyunsaturated fatty acids are found in high concentrations in the CNS, and are particularly vulnerable to free radicals attack. Thus, we tried to test the ability of our compound to scavenge hydroxyl radicals. […] Antioxidants with lipophilic character are needed to act as radical scavengers or as chain-breaking antioxidants in biological membranes.

[3] = ABTS radical cation decolorization assay; type: biochemical; conditions: tested at 100 μM
Procedure: ABTS^⋅+-decolorization assay in ethanolic solution for antioxidant activity.^32,35 ABTS is dissolved in water to a 2 mM concentration. ABTS radical cation (ABTS^⋅+) is produced by reacting the ABTS stock solution with 0.17 mM potassium persulfate in phosphate buffer (pH 7.4, 20 mM) and allowing the mixture to stand in the dark at room temperature for 12-16 h before use. For steady state measurements, […] ABTS^⋅+ was used. For the present study, the […] ABTS^⋅ solution (200 μL) was diluted with ethanol (790 μL) to an absorbance of 0.70 at 734 nm, equilibrated at room temperature, mixed with 10 μL of the tested compounds (stock solutions 10 mM) and the absorbance reading was taken at room temperature 1 min after the initial mixing. Trolox was used as a standard.
3.4. ABTS^⋅+ antioxidant activity of QNs. The ABTS^⋅+ radical cation, derived from the oxidation of 2,2′-azino-bis(3-ethylbenzothiazoline-6-sulphonic acid) (ABTS) by potassium persulfate, is a green-blue stable chromophore, which can be analyzed in the course of a decolorization assay. The addition of electron-donor antioxidants leads to ABTS^⋅+ reduction. The chemistry taking place involves the direct generation of the ABTS^⋅+ with no involvement of an intermediary radical. […] Again, and as shown, QN23 presented limited activity beside with 19, although the others nitrones had no activity (Table 3).

[4] = Superoxide radical scavenging (hypoxanthine/xanthine oxidase system); type: biochemical; conditions: tested at 100 μM (0.1 mM)
Description: 3.7. Superoxide radical scavenging activity. Superoxide anion radical (O2⋅−) is less toxic than hydroxyl radical, but still one of the most known harmful toxic ROS. In physiological conditions, superoxide dismutase catalyzes its conversion to H2O2, which is the precursor for the formation of hydroxyl radicals in the presence of iron ions.43 Superoxide anion radicals O2⋅− and H2O2 are ROS produced in vivo through a one-electron reduction process of O2. The evaluation of superoxide anion radical scavenging activity can be determined using assays involving non-enzymatic or enzymatic production of superoxide anions. In this assay, superoxide anion radicals were generated by a hypoxanthine and xanthine oxidase reaction system, and the O2⋅− scavenging activity (%) has been measured spectrophotometrically.

[5] = Rattus norvegicus, R24 h = 0%, control = 100%

CC(C)(C)/[N+]([O-])=C/c1ccc(S(=O)(=O)O)cc1S(=O)(=O)O [Compound 2, sodium (Z)-4-((tert-butyloxidoazanylidene)methyl)benzene-1,3-disulfonate, reference compound]
neuronal viability compared with R24 h (in words) [1]: only produced a significant neuroprotective effect at 250 μM
viability at 100 µM [1, 5]: 42.8 ± 2.31%
viability at 250 µM [1, 5]: 52.9 ± 2.52%
viability at 500 µM ([1]; Rattus norvegicus, 500 μM, R24 h = 0%, control = 100%): 46.5 ± 1.1%
*OH (%) [2]: 94%
ABTS*+ (%) [3]: no
O2*− (%) [4]: no activity and no

CC(C)(C)/[N+]([O-])=C/c1cc2ccccc2nc1Cl [Compound 18, (Z)—N-t-Butyl-1-(2-chloroquinolin-3-yl)methanimine oxide]
viability at 1 µM [1, 5]: 9.76 ± 0.84%
viability at 10 µM [1, 5]: 29 ± 3.83%
viability at 100 µM [1, 5]: < 0%
*OH (%) [2]: 97%
ABTS*+ (%) [3]: no
O2*− (%) [4]: 16%

CC(C)(C)/[N+]([O-])=C/c1cc2ccccc2[nH]c1=O [Compound 19, (Z)—N-tert-Butyl-1-(2-oxo-1,2-dihydroquinolin-3-yl)methanimine oxide]
neuronal viability compared with R24 h (in words) [1]: significantly increased neuronal viability
viability at 100 µM [1, 5]: 48.8 ± 2.29%
viability at 250 µM [1, 5]: 55 ± 1.89%
*OH (%) [2]: 99%
ABTS*+ (%) [3]: 6%
O2*− (%) [4]: 23%

COc1ccc2nc(Cl)c(/C=[N+](/C)[O-])cc2c1 [Compound 22, (Z)-1-(2-Chloro-6-methoxyquinolin-3-yl)-N-methylmethanimine oxide]
viability at 0.3 µM [1, 5]: < 0%
viability at 1 µM [1, 5]: < 0%
viability at 10 µM [1, 5]: < 0%
viability at 100 µM [1, 5]: < 0%
viability at 250 µM [1, 5]: < 0%
*OH (%) [2]: 100%
ABTS*+ (%) [3]: no
O2*− (%) [4]: 29%

COc1ccc2nc(Cl)c(/C=[N+](\[O-])C(C)(C)C)cc2c1 [Compound 23, (Z)—N-tert-Butyl-1-(2-chloro-6-methoxyquinolin-3-yl)methanimine oxide]
neuronal viability compared with R24 h (in words) [1]: significantly increased neuronal viability
viability at 10 µM [1, 5]: 52 ± 1.75%
viability at 100 µM [1, 5]: 77.1 ± 2.24%
viability at 250 µM [1, 5]: 65.9 ± 2.87%
*OH (%) [2]: 100%
ABTS*+ (%) [3]: 7%
O2*− (%) [4]: 5%

COc1ccc2nc(Cl)c(/C=[N+](\[O-])Cc3ccccc3)cc2c1 [Compound 24, (Z)—N-Benzyl-1-(2-chloro-6-methoxyquinolin-3-yl)methanimine oxide]
viability at 0.3 µM [1, 5]: < 0%
viability at 1 µM [1, 5]: 31.3 ± 1.38%
viability at 10 µM [1, 5]: 29.7 ± 1.38%
viability at 100 µM [1, 5]: 38.9 ± 1.31%
*OH (%) [2]: 65%
ABTS*+ (%) [3]: no
O2*− (%) [4]: 12.5%

COc1ccc2nc(Cl)c(C=O)cc2c1 [Compound 32, 2-chloro-6-methoxyquinoline-3-carbaldehyde, reference compound]
neuronal viability compared with R24 h (in words) [1]: nor carbaldehyde 32, the precursor of potent QN 23, showed neuroprotective activity
viability at 1 µM [1, 5]: < 0%
viability at 10 µM [1, 5]: < 0%
viability at 100 µM [1, 5]: < 0%
*OH (%) [2]: 89%
ABTS*+ (%) [3]: 5%
O2*− (%) [4]: 23%

Source: patent US12102631B2, “Quinolylnitrones for the treatment and prevention of a cerebral stroke or ischaemia” (ISQUAEMIA BIOTECH, S.L., priority 2018, dated 2024)
